In patent publication US20100048921A1, “PHARMACEUTICALLY ACTIVE COMPOUNDS” (priority 2007, published 2010):

Tested on: thrombocytes (platelet-rich plasma)
Test: Collagen-induced thrombocyte aggregation in platelet-rich plasma (aggregometry, PAP-8E)
Assay type: cell-based, human
Conditions: for End point (FA) / Maximum aggregation (MA): substance 50 μM
Description: The substances used, genistein, glu-glu, DMSO, ala-ala were provided by the company Sigma-Aldrich, Munich. For the measurement, the Platelet Aggregation Profiler Model PAP-8E of the company Bio/Data Corporation, an 8-channel aggregometer with a computerised digital curve creation, has been used.
After the taking of a blood sample from a large calibre vein in unbuffered citrate 10%, the whole blood which is achieved by this is centrifugated with about 1,500 RPM for 10 min. The platelet-rich plasma (PRP) which is achieved by this then has to rest for 45 min. at ambient temperature. At the same time, […] for the creation of the respective blank values is gained from the same sample with common centrifugation. For the measurement, cuvettes with a volume of 0.25 ml are used.
Stock solutions of the substances to be tested, including genistein as well as the peptides ala-ala and glu-glu which are used, are prepared in a ratio of 1 mg on 1 ml, genistein as well as the tested coupling products in DMSO, glu-glu and ala-ala in H2O.

[1] = collagen 1 μg/ml, listed as genistein

Compound: O=c1c(-c2ccc(O)cc2)coc2cc(O)cc(O)c12 [Genistein, genistein]
- active concentration which starts to be effective (collagen-induced aggregation, own specification): 50 µM
- aggregation of the platelets (genistein 50 μM, collagen 1 μg/ml, reference (no additive) 90%): 82%
- aggregation (genistein 100 μM, collagen 1 μg/ml, reference (no additive) 90%): 50%
- thrombocyte aggregation (genistein 200 μM, collagen 1 μg/ml): almost completely inhibited
- End point (FA) (collagen 1 μg/ml): 82%
- Maximum aggregation (MA) (collagen 1 μg/ml): 85%
- End point (FA) [1]: 82%
- Maximum aggregation (MA) [1]: 85%
